Experimental data reported in patent US12060400B2, “Peptides for use in immunotherapy against cancers” (Immatics Biotechnologies GmbH, priority 2018, dated 2024).

Test system: HLA-A*24
Assay: MHC binding assay: UV-ligand exchange with beta2m ELISA (peptide exchange yield)
Set-up: species or system human
Conditions: Table 11, binding to HLA-A*24, UV-ligand exchange
Procedure, shortened: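 Peptide-MHC complexes generated by UV-induced exchange of a photocleavable ligand with the test peptide; exchange yield quantified by streptavidin-capture ELISA detecting β2m (HRP anti-β2m, TMB, A450). Samples diluted 100-fold, with refolded HLA-A*02:01/MLA-001 monomers (15-500 ng/ml) as standards.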

**Q.** With “263 (AYVTEFVSL; listed as Homo sapiens) [compound 263]” as the substance, how does the “Peptide exchange (MHC class I binding score, peptide exchange yield)” value (shortened to “Peptide exchange”) read?
**A.** ++++ (>75% = ++++)

**Q.** For “216 (RHYHSIEVF; listed as Homo sapiens) [compound 216]”, which “Peptide exchange” value is on record?
**A.** ++ (>20% = ++)

**Q.** “229 (CAMPVAMEF; listed as Homo sapiens) [compound 229]” was tested. Which “Peptide exchange” value did it give?
**A.** ++ (>20% = ++)

**Q.** For “365 (KDLMKAYLF; listed as Homo sapiens) [compound 365]”, which “Peptide exchange” value is on record?
**A.** +++ (>50 = +++)

**Q.** With “55 (AVLRHLETF; listed as Homo sapiens) [compound 55]” as the substance, how does the “Peptide exchange” value read?
**A.** ++ (>20% = ++)

**Q.** How did the “Peptide exchange” value turn out when “196 (VGRSPVFLF; listed as Homo sapiens) [compound 196]” was run?
**A.** ++ (>20% = ++)

**Q.** Which “Peptide exchange” value does the source give for “225 (ISMSATEFLL; listed as Homo sapiens) [compound 225]” here?
**A.** +++ (>50 = +++)

**Q.** For “373 (IWDALERTF; listed as Homo sapiens) [compound 373]”, which “Peptide exchange” value is on record?
**A.** ++ (>20% = ++)

**Q.** Which “Peptide exchange” value does the source give for “321 (VYTVGHNLI; listed as Homo sapiens) [compound 321]” here?
**A.** ++++ (>75% = ++++)

**Q.** For “182 (AQGSGTVTF; listed as Homo sapiens) [compound 182]”, which “Peptide exchange” value is on record?
**A.** ++ (>20% = ++)

**Q.** How did the “Peptide exchange” value turn out when “59 (VFPLVTPLL; listed as Homo sapiens) [compound 59]” was run?
**A.** ++++ (>75% = ++++)

**Q.** Which “Peptide exchange” value does the source give for “34 (LIFALALAAF; listed as Homo sapiens) [compound 34]” here?
**A.** + (>10% = +)

**Q.** For “339 (KQVIGIHTF; listed as Homo sapiens) [compound 339]”, which “Peptide exchange” value is on record?
**A.** + (>10% = +)

**Q.** How did the “Peptide exchange” value turn out when “284 (QFYSTLPNTI; listed as Homo sapiens) [compound 284]” was run?
**A.** + (>10% = +)

**Q.** For “53 (LFQRVSSVSF; listed as Homo sapiens) [compound 53]”, which “Peptide exchange” value is on record?
**A.** +++ (>50 = +++)

**Q.** Which “Peptide exchange” value does the source give for “275 (PEYSLPVLTF; listed as Homo sapiens) [compound 275]” here?
**A.** ++++ (>75% = ++++)

**Q.** How did the “Peptide exchange” value turn out when “74 (NYVLVPTMF; listed as Homo sapiens) [compound 74]” was run?
**A.** ++++ (>75% = ++++)

**Q.** How did the “Peptide exchange” value turn out when “3 (KFLTHDVLTELF; listed as Homo sapiens) [compound 3]” was run?
**A.** ++++ (>75% = ++++)

**Q.** With “330 (DYIQMIPEL; listed as Homo sapiens) [compound 330]” as the substance, how does the “Peptide exchange” value read?
**A.** ++++ (>75% = ++++)

**Q.** How did the “Peptide exchange” value turn out when “300 (LFALPDFIF; listed as Homo sapiens) [compound 300]” was run?
**A.** ++ (>20% = ++)

**Q.** How did the “Peptide exchange” value turn out when “319 (ATATLHLIF; listed as Homo sapiens) [compound 319]” was run?
**A.** + (>10% = +)

**Q.** How did the “Peptide exchange” value turn out when “6 (IVTFMNKTLGTF; listed as Homo sapiens) [compound 6]” was run?
**A.** + (>10% = +)

**Q.** With “307 (RILTEFELL; listed as Homo sapiens) [compound 307]” as the substance, how does the “Peptide exchange” value read?
**A.** +++ (>50 = +++)

**Q.** Which “Peptide exchange” value does the source give for “68 (VYKEDLPQL; listed as Homo sapiens) [compound 68]” here?
**A.** ++++ (>75% = ++++)

**Q.** “143 (KTKRWLWDF; listed as Homo sapiens) [compound 143]” was tested. Which “Peptide exchange” value did it give?
**A.** +++ (>50 = +++)

**Q.** With “184 (VYVRPRVF; listed as Homo sapiens) [compound 184]” as the substance, how does the “Peptide exchange” value read?
**A.** ++ (>20% = ++)

**Q.** For “351 (GYFGTASLF; listed as Homo sapiens) [compound 351]”, which “Peptide exchange” value is on record?
**A.** ++++ (>75% = ++++)

**Q.** Which “Peptide exchange” value does the source give for “66 (IYKDYYRYNF; listed as Homo sapiens) [compound 66]” here?
**A.** ++++ (>75% = ++++)

**Q.** Which “Peptide exchange” value does the source give for “372 (LYHNWRHAF; listed as Homo sapiens) [compound 372]” here?
**A.** ++++ (>75% = ++++)

**Q.** How did the “Peptide exchange” value turn out when “90 (TDLVQFLLF; listed as Homo sapiens) [compound 90]” was run?
**A.** ++ (>20% = ++)

**Q.** With “242 (SYTPLLSYI; listed as Homo sapiens) [compound 242]” as the substance, how does the “Peptide exchange” value read?
**A.** ++++ (>75% = ++++)

**Q.** “259 (FFLFIPFF; listed as Homo sapiens) [compound 259]” was tested. Which “Peptide exchange” value did it give?
**A.** ++ (>20% = ++)

**Q.** Which “Peptide exchange” value does the source give for “265 (LYQQSDTWSL; listed as Homo sapiens) [compound 265]” here?
**A.** ++ (>20% = ++)

**Q.** For “190 (IYIIMQSCW; listed as Homo sapiens) [compound 190]”, which “Peptide exchange” value is on record?
**A.** +++ (>50 = +++)

**Q.** “46 (IYPDSIQEL; listed as Homo sapiens) [compound 46]” was tested. Which “Peptide exchange” value did it give?
**A.** +++ (>50 = +++)

**Q.** How did the “Peptide exchange” value turn out when “312 (YLCMLYALF; listed as Homo sapiens) [compound 312]” was run?
**A.** ++ (>20% = ++)

**Q.** How did the “Peptide exchange” value turn out when “151 (RRLWAYVTI; listed as Homo sapiens) [compound 151]” was run?
**A.** + (>10% = +)

**Q.** How did the “Peptide exchange” value turn out when “164 (MFQEMLQRL; listed as Homo sapiens) [compound 164]” was run?
**A.** + (>10% = +)

**Q.** With “368 (AYFVAMHLF; listed as Homo sapiens) [compound 368]” as the substance, how does the “Peptide exchange” value read?
**A.** ++++ (>75% = ++++)

**Q.** For “50 (RYFDENIQKF; listed as Homo sapiens) [compound 50]”, which “Peptide exchange” value is on record?
**A.** ++++ (>75% = ++++)

**Q.** With “73 (YFCSTKGQLF; listed as Homo sapiens) [compound 73]” as the substance, how does the “Peptide exchange” value read?
**A.** ++++ (>75% = ++++)

**Q.** With “243 (ALFPMGPLTF; listed as Homo sapiens) [compound 243]” as the substance, how does the “Peptide exchange” value read?
**A.** ++ (>20% = ++)

**Q.** With “218 (FYFYNCSSL; listed as Homo sapiens) [compound 218]” as the substance, how does the “Peptide exchange” value read?
**A.** ++++ (>75% = ++++)

**Q.** Which “Peptide exchange” value does the source give for “266 (TQIITFESF; listed as Homo sapiens) [compound 266]” here?
**A.** ++ (>20% = ++)

**Q.** How did the “Peptide exchange” value turn out when “117 (RSMEHPGKLLF; listed as Homo sapiens) [compound 117]” was run?
**A.** +++ (>50 = +++)

**Q.** How did the “Peptide exchange” value turn out when “30 (RQAYSVYAF; listed as Homo sapiens) [compound 30]” was run?
**A.** ++ (>20% = ++)

**Q.** Which “Peptide exchange” value does the source give for “214 (YIPMSVMLF; listed as Homo sapiens) [compound 214]” here?
**A.** +++ (>50 = +++)

**Q.** Which “Peptide exchange” value does the source give for “279 (KYKNPYGF; listed as Homo sapiens) [compound 279]” here?
**A.** + (>10% = +)

**Q.** Which “Peptide exchange” value does the source give for “31 (KQMQEFFGL; listed as Homo sapiens) [compound 31]” here?
**A.** +++ (>50 = +++)

**Q.** Which “Peptide exchange” value does the source give for “15 (FMVIAGMPLF; listed as Homo sapiens) [compound 15]” here?
**A.** ++ (>20% = ++)

**Q.** For “272 (IYFNHRCF; listed as Homo sapiens) [compound 272]”, which “Peptide exchange” value is on record?
**A.** +++ (>50 = +++)

**Q.** With “183 (YQVAKGMEF; listed as Homo sapiens) [compound 183]” as the substance, how does the “Peptide exchange” value read?
**A.** + (>10% = +)

**Q.** With “199 (MFQFEHIKW; listed as Homo sapiens) [compound 199]” as the substance, how does the “Peptide exchange” value read?
**A.** ++ (>20% = ++)

**Q.** With “115 (IMQGFIRAF; listed as Homo sapiens) [compound 115]” as the substance, how does the “Peptide exchange” value read?
**A.** ++ (>20% = ++)

**Q.** How did the “Peptide exchange” value turn out when “310 (EFINGWYVL; listed as Homo sapiens) [compound 310]” was run?
**A.** ++ (>20% = ++)

**Q.** How did the “Peptide exchange” value turn out when “62 (VYIVPVIVL; listed as Homo sapiens) [compound 62]” was run?
**A.** ++++ (>75% = ++++)

**Q.** “192 (CYSFIHLSF; listed as Homo sapiens) [compound 192]” was tested. Which “Peptide exchange” value did it give?
**A.** ++++ (>75% = ++++)

**Q.** “98 (LQIPVSPSF; listed as Homo sapiens) [compound 98]” was tested. Which “Peptide exchange” value did it give?
**A.** + (>10% = +)

**Q.** “171 (LYTVPFNLI; listed as Homo sapiens) [compound 171]” was tested. Which “Peptide exchange” value did it give?
**A.** ++++ (>75% = ++++)

**Q.** “349 (IYMTTGVLL; listed as Homo sapiens) [compound 349]” was tested. Which “Peptide exchange” value did it give?
**A.** ++++ (>75% = ++++)

**Q.** For “83 (VLQGEFFLF; listed as Homo sapiens) [compound 83]”, which “Peptide exchange” value is on record?
**A.** ++++ (>75% = ++++)

**Q.** Which “Peptide exchange” value does the source give for “344 (YAYATVLTF; listed as Homo sapiens) [compound 344]” here?
**A.** ++ (>20% = ++)

**Q.** For “119 (VWSCEGCKAF; listed as Homo sapiens) [compound 119]”, which “Peptide exchange” value is on record?
**A.** ++ (>20% = ++)

**Q.** “292 (KMFPKDFRF; listed as Homo sapiens) [compound 292]” was tested. Which “Peptide exchange” value did it give?
**A.** ++ (>20% = ++)

**Q.** With “222 (HYHAESFLF; listed as Homo sapiens) [compound 222]” as the substance, how does the “Peptide exchange” value read?
**A.** ++++ (>75% = ++++)

**Q.** “35 (FSSTLVSLF; listed as Homo sapiens) [compound 35]” was tested. Which “Peptide exchange” value did it give?
**A.** ++ (>20% = ++)

**Q.** With “298 (TYETVMTFF; listed as Homo sapiens) [compound 298]” as the substance, how does the “Peptide exchange” value read?
**A.** ++++ (>75% = ++++)

**Q.** For “302 (YQGSLEVLF; listed as Homo sapiens) [compound 302]”, which “Peptide exchange” value is on record?
**A.** ++ (>20% = ++)

**Q.** Which “Peptide exchange” value does the source give for “154 (DYSKQALSL; listed as Homo sapiens) [compound 154]” here?
**A.** ++ (>20% = ++)
